Some test systems named below: SK-MEL-5 melanoma; SF-268 CNS; SW-620 colon; MOLT-4 leukemia; A549 NSCLC; RPMI-8226 leukemia; NCI/ADR-RES ovarian; HOP-92 NSCLC; KM12 colon; MDA-N.
Holding throughout (assay): inhibition of tumour cell growth, NCI panel, 48 h

SMILES strings stand for the structures.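 A five-concentration, 48-hour dose response in 96-well plates underlies each endpoint, interpolated linearly between surrounding concentrations. TGI is the concentration that stops growth completely.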 Some results are limits rather than exact numbers.

Our source for the TGI values is PubChem BioAssay (NCI).

For the molecule `O=C1CCSSCCC(=O)NCCN1`, the TGI in the experiment with SK-MEL-5 melanoma, with SF-268 CNS, in the experiment with SW-620 colon, in the experiment with MOLT-4 leukemia, in the experiment with A549 NSCLC and in the experiment on RPMI-8226 leukemia was above 100 µM each time. In addition, the TGI in the experiment on NCI/ADR-RES ovarian, in the experiment with HOP-92 NSCLC, with KM12 colon and with MDA-N was above 100 µM each time.
As for `CC(=O)NS(=O)(=O)c1ccc(NC(=O)c2c3ccccc3nc3ccccc23)cc1`, the TGI with SK-MEL-5 melanoma, in the experiment with SF-268 CNS, in the experiment with SW-620 colon, in the experiment with MOLT-4 leukemia, in the experiment with A549 NSCLC and with RPMI-8226 leukemia was above 100 µM each time. Moreover, the TGI with NCI/ADR-RES ovarian, in the experiment on HOP-92 NSCLC, in the experiment on KM12 colon and with MDA-N was above 100 µM throughout.
On to `O=C(NC(Cc1c[nH]c2ccccc12)C(=O)O)/C(=C/c1ccccc1O)NC(=O)c1ccccc1` (stereo not given), for which the TGI with SK-MEL-5 melanoma was above 100 µM; in the experiment on SF-268 CNS, 45.6 µM; with SW-620 colon, above 100 µM; in the experiment with MOLT-4 leukemia, above 100 µM; in the experiment on A549 NSCLC, above 100 µM; in the experiment with RPMI-8226 leukemia it was above 100 µM. In addition, the TGI with NCI/ADR-RES ovarian was 39.7 µM; in the experiment on HOP-92 NSCLC, 75.5 µM; in the experiment on KM12 colon, above 100 µM; with MDA-N, above 100 µM.
For the molecule `C=C1[C@@H](O)C[C@@]23CC[C@@H]4[C@@]5(C)CC[C@@H](OC(C)=O)C(C)(C)[C@@H]5C[C@@H](OC5OC(COC(C)=O)C(O)C(O)C5O)[C@@]4(C)C2=CC[C@H]3[C@H]1C` (stereo not given in full), the TGI came out at 12.3 µM with SK-MEL-5 melanoma; 19 µM in the experiment with SF-268 CNS; 21.7 µM in the experiment on SW-620 colon; 8.32 µM with MOLT-4 leukemia; 16.8 µM with A549 NSCLC; 8.01 µM with RPMI-8226 leukemia. In addition, the TGI in the experiment on NCI/ADR-RES ovarian came out at 35.3 µM; in the experiment with HOP-92 NSCLC, 20.5 µM; with KM12 colon, 8.16 µM; in the experiment with MDA-N, 17.5 µM.
Consider `CCSC1=CC(=O)c2nc3ccccc3c3ccnc1c23`, for which the TGI is above 22 µM with SF-268 CNS; above 21.4 µM with SW-620 colon; 15.3 µM with MOLT-4 leukemia; 22.9 µM with A549 NSCLC; above 31.6 µM in the experiment with RPMI-8226 leukemia; above 30.1 µM in the experiment with NCI/ADR-RES ovarian. Further, the TGI in the experiment on HOP-92 NSCLC came out at 38.6 µM; with KM12 colon, 25.2 µM; in the experiment with MDA-N, 4 µM.
Regarding `O=[N+]([O-])C(=C(N1CCCCC1)N1CCCCC1)/C(Cl)=C(\Cl)Br`, the TGI is 46 µM in the experiment with SK-MEL-5 melanoma; 87.9 µM with SF-268 CNS; 38.5 µM with SW-620 colon; 57.3 µM in the experiment on MOLT-4 leukemia; above 100 µM in the experiment with A549 NSCLC; 44.2 µM with RPMI-8226 leukemia. Further, the TGI was 91.8 µM in the experiment on NCI/ADR-RES ovarian, 53.4 µM with HOP-92 NSCLC, 54.5 µM in the experiment with KM12 colon and above 100 µM with MDA-N.
`Cc1cn2c(/C=C3/C(=O)Nc4cccc(Cl)c43)c(Cl)nc2s1`: the TGI in the experiment on SF-268 CNS, with SW-620 colon, in the experiment on MOLT-4 leukemia, in the experiment with A549 NSCLC, with RPMI-8226 leukemia and in the experiment with NCI/ADR-RES ovarian was above 100 µM in each case. The TGI in the experiment on HOP-92 NSCLC, in the experiment with KM12 colon and with MDA-N was above 100 µM throughout.
Consider `O=C1CCC(=Nc2ccc(Cl)cc2)N1C(=O)COc1ccc(OCC(=O)N2C(=O)CSC2=Nc2ccc(Cl)cc2)cc1`, for which the TGI in the experiment with SK-MEL-5 melanoma, in the experiment on SF-268 CNS, with SW-620 colon, with A549 NSCLC, in the experiment on RPMI-8226 leukemia and in the experiment on NCI/ADR-RES ovarian was above 100 µM each time. The TGI with HOP-92 NSCLC, with KM12 colon and in the experiment with MDA-N was above 100 µM throughout.
On to `Cc1cc2c(C)cc(=O)[nH]c2cc1N`, for which the TGI in the experiment with SK-MEL-5 melanoma, in the experiment on SW-620 colon, in the experiment on MOLT-4 leukemia, with A549 NSCLC, in the experiment with RPMI-8226 leukemia and in the experiment with NCI/ADR-RES ovarian was above 100 µM in each case. Besides, the TGI in the experiment on HOP-92 NSCLC, with KM12 colon and with MDA-N was above 100 µM each time.
`COc1cc2c(cc1OC)C1c3ccccc3CCN1CC2` (stereo not given): the TGI in the experiment on SK-MEL-5 melanoma, with SF-268 CNS, in the experiment on SW-620 colon, in the experiment on MOLT-4 leukemia, with A549 NSCLC and with NCI/ADR-RES ovarian was above 100 µM throughout. For the same molecule, the TGI in the experiment with HOP-92 NSCLC, with KM12 colon and in the experiment on MDA-N was above 100 µM in each case.
Consider `O=C(CN1CCCCC1)CC(O)(C(F)(F)F)C(F)(F)F`, for which the TGI with SK-MEL-5 melanoma, in the experiment with SW-620 colon, in the experiment with A549 NSCLC, with RPMI-8226 leukemia, in the experiment with NCI/ADR-RES ovarian and in the experiment on HOP-92 NSCLC was above 100 µM in each case. The TGI with KM12 colon and with MDA-N was above 100 µM in each case.
Take `CCCCOC(C)(C)/C=C/C(O)[C@](C)(O)[C@H]1[C@H](O)C[C@@]2(C)[C@@H]3CCc4c(cc(OC5OC(CO)C(O)C(O)C5O)c(O)c4C)C3(C)C(=O)C[C@]12C` (stereo not given in full): the TGI with SK-MEL-5 melanoma, in the experiment with SF-268 CNS, in the experiment with SW-620 colon, in the experiment on MOLT-4 leukemia, with A549 NSCLC and in the experiment with NCI/ADR-RES ovarian was above 100 µM each time. Besides, the TGI in the experiment with HOP-92 NSCLC, in the experiment on KM12 colon and with MDA-N was above 100 µM in each case.
As for `COc1cc(C2c3cc4c(cc3OC(NN=C(C)C)C2C)OCO4)cc(OC)c1O` (stereo not given), the TGI in the experiment on SK-MEL-5 melanoma was 38.1 µM; in the experiment on SF-268 CNS, above 100 µM; with SW-620 colon, above 100 µM; in the experiment on A549 NSCLC, above 100 µM; in the experiment on RPMI-8226 leukemia, 31.2 µM; in the experiment with NCI/ADR-RES ovarian, above 100 µM. The results for the TGI in the experiment on HOP-92 NSCLC, in the experiment with KM12 colon and in the experiment on MDA-N were above 100 µM, above 100 µM and 11.6 µM, respectively.
Turning to `NC(CSCc1ccccc1)C(=O)O` (stereo not given), the TGI in the experiment with SK-MEL-5 melanoma, in the experiment with SF-268 CNS, in the experiment with SW-620 colon, with A549 NSCLC, in the experiment on RPMI-8226 leukemia and with NCI/ADR-RES ovarian was above 100 µM throughout. Further, the TGI in the experiment on HOP-92 NSCLC, with KM12 colon and with MDA-N was above 100 µM throughout.
